The target in the assay is T1, CCK1 receptor (Rattus norvegicus, UniProt P30551).
T1 construct: from tissue; host or cells: live male rats (in vivo; gastrointestinal tract)
T1 sequence (P30551 1-444): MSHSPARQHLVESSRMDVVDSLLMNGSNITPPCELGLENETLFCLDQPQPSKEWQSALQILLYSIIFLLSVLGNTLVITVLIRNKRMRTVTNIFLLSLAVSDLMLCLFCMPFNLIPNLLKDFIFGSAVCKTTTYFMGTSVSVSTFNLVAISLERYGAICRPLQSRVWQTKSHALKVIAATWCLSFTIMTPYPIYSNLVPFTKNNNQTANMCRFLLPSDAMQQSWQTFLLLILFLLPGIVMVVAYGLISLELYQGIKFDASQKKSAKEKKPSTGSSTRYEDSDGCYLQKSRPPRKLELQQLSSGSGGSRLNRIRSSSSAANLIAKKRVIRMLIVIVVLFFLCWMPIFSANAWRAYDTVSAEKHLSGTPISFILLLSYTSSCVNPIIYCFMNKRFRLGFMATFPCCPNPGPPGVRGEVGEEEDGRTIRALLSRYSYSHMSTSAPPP
The experiment in a line: Effects of lorglumide on noni-mediated inhibition of gastric emptying and intestinal transit. The class given is in vivo. The conditions noted are these: lorglumide i.p. 15 min before test meal, rats given noni 1 ml/kg orally for 7 days. The protocol: Male rats were divided into four groups and fasted for 24 h before use. Fifteen min before gastric intubation of a non-nutrient liquid meal, the animals were injected i.p. with the following compounds in 1 ml/kg: group 1 received dimethyl sulfoxide (DMSO), […], respectively. Groups 2-4 received 1 ml/kg of noni orally once daily for 7 days.
Gastric emptying and intestinal transit were measured. Rats were intubated via a catheter with physiological saline (3 ml/kg) containing Na2^51CrO4 (0.5 μCi/ml) and 10% charcoal. The test meal was continuously stirred before intubation. Air (0.5 ml) was injected to flush the residual charcoal suspension in the catheter into rat stomach. Fifteen minutes later, the rats were decapitated and the stomach with the attached small intestine was immediately exposed by laparotomy. […] The small intestine was then divided into ten equal segments, and the radioactivity in the stomach and each segment of small intestine was measured in an automatic gamma counter. Gastric emptying was measured by determining the amount of labeled chromium contained in the small intestine fifteen minutes after intubation, expressed as a percentage of the amount given. Intestinal transit was assessed by calculating the geometric center of distribution of the radioactivity within the 10 segments by summation of the radioactivity in each segment multiplied by the segment number.

As for `CCCCCN(CCCCC)C(=O)C(CCC(=O)O)NC(=O)c1ccc(Cl)c(Cl)c1` (centres unmarked) [lorglumide], the “Noni-induced inhibition of intestinal transit” value is reported as “not altered”. The “Noni-induced inhibition of gastric emptying” value (P<0.01) was “significantly prevented”.

The values are drawn from patent US20080206367A1, “Morinda Citrifolia-based Formulations and Methods for Weight Management” (priority 2004, published 2008).
